Like-named read-outs stand apart in the source and are kept apart here.
Tested on: P. falciparum 3D7 gametocytes
Assay: alamarBlue gametocyte viability assay, strain 3D7
Assay type: cell-based, Plasmodium falciparum
Conditions: for Max Resp: DMSO set at 0%, 100 nM epoxomicin set at -100%; call rule not given here
[1] = Malaria Box, stages III-V 3D7 gametocytes
[2] = Malaria Box, stages III-V 3D7 gametocytes, 11 concentrations, 1:3 dilution
[3] = Malaria Box, stages III-V 3D7 gametocytes, 11 concentrations, 1:3 dilution, read-out: IC50

## CCOc1ccc(CCNC(=O)c2cccs2)cc1OCC [MMV007978]
Malaria Box
  Max Resp: -13%
[1]
  Curve Class: 4
[2]
  IC50: Inactive

## CN1CCN(c2c3c(c(C#N)c4nc5ccccc5n24)CCC3)CC1 [MMV008127]
Malaria Box
  Max Resp: -5%
[1]
  Curve Class: 4
[2]
  IC50: Inactive

## O=C(O)C1Cc2c([nH]c3ccccc23)C(c2ccc(Cl)cc2Cl)N1 (centres unmarked) [MMV008138]
Malaria Box
  Max Resp: -1%
[1]
  Curve Class: 4
[2]
  IC50: Inactive

## Cc1c(C)n(Cc2ccc(F)cc2)c2ccc(C(=O)NCc3ccco3)cc12 [MMV008149]
Malaria Box
  Max Resp: 17%
[1]
  Curve Class: 4
[2]
  IC50: Inactive

## CN1C=C(c2ccc3ccccc3n2)C(c2c[nH]c3ccccc23)c2ccccc21 (centres unmarked) [MMV008160]
Malaria Box
  Max Resp: -87%
[1]
  Curve Class: -2.1
[3]
  IC50: 14.8 µM

## COc1cc(OC)cc(N2C(=O)N(Cc3ccc(C(C)(C)C)cc3)c3ccccc3S2(=O)=O)c1 [MMV008173]
Malaria Box
  Max Resp: 0%
[1]
  Curve Class: 4
[2]
  IC50: Inactive

## COc1ccc2nc(C)cc(Nc3cccc(O)c3)c2c1.Cl [MMV008212]
Malaria Box
  Max Resp: -64%
[1]
  Curve Class: -2.2
[3]
  IC50: 29.6 µM

## CCOC(=O)c1cnc2c(C)cc(C)cc2c1Nc1ccc(OC)c(OC)c1 [MMV008294]
Malaria Box
  Max Resp: -8%
[1]
  Curve Class: 4
[2]
  IC50: Inactive

## CCCc1c(CC)c(=N)c2ccccc2n1C [MMV008416]
Malaria Box
  Max Resp: -53%
[1]
  Curve Class: -2.2
[3]
  IC50: 37.2 µM

## COc1ccc(C2C(C(=O)Nc3cccc(OC)c3)c3ccccc3C(=O)N2C2CCCCC2)cc1 (centres unmarked) [MMV008455]
Malaria Box
  Max Resp: -89%
[1]
  Curve Class: -2.1
[3]
  IC50: 16.6 µM

## CCN1CCN(c2c(C(=O)c3ccccc3)cnc3cc(OC)c(OC)cc23)CC1 [MMV008474]
Malaria Box
  Max Resp: -32%
[1]
  Curve Class: -2.4
[2]
  IC50: Inactive

## CCCn1c(=N)c(C(=O)NC2CCCCC2)cc2c(=O)n3cccc(C)c3nc21 [MMV008829]
Malaria Box
  Max Resp: -26%
[1]
  Curve Class: 4
[2]
  IC50: Inactive

## CCOc1cc2c(cc1OCC)C(c1cc(OC)c(O)cc1Cl)NCC2 (centres unmarked) [MMV008956]
Malaria Box
  Max Resp: -73%
[1]
  Curve Class: -1.2
[3]
  IC50: 3.32 µM

## O=C(CCc1ccccc1)c1ccccc1OCC(O)CN1CCCCC1 (centres unmarked) [MMV009015]
Malaria Box
  Max Resp: -74%
[1]
  Curve Class: -2.2
[3]
  IC50: 7.43 µM

## CCN(CC)c1ccc(NC(=O)c2cccs2)cc1 [MMV009060]
Malaria Box
  Max Resp: 20%
[1]
  Curve Class: 4
[2]
  IC50: Inactive

## OC(CNC1CCCCC1)Cn1c2ccccc2c2ccccc21 (centres unmarked) [MMV009063]
Malaria Box
  Max Resp: -99%
[1]
  Curve Class: -1.1
[3]
  IC50: 2.35 µM

## O=C1c2ccc3c4c(ccc(c24)C(=O)N1CCCCO)C(=O)N(CCCCO)C3=O [MMV009085]
Malaria Box
  Max Resp: -71%
[1]
  Curve Class: -2.2
[3]
  IC50: 14.8 µM

## Br.CCN(CC)S(=O)(=O)c1ccc(-c2csc(Nc3ccc(C)c(C)c3)n2)cc1 [MMV009108]
Malaria Box
  Max Resp: -14%
[1]
  Curve Class: 4
[2]
  IC50: Inactive

## CC1CCN(Cc2c(O)ccc3cc(-c4nc5ccccc5s4)c(=O)oc23)CC1 [MMV009127]
Malaria Box
  Max Resp: -72%
[1]
  Curve Class: -2.2
[3]
  IC50: 29.6 µM

## Cc1cc(Nc2ccc3ccccc3c2)n2ncnc2n1 [MMV011099]
Malaria Box
  Max Resp: -5%
[1]
  Curve Class: 4
[2]
  IC50: Inactive

## Cc1cc(Nc2ccc(Cl)cc2)n2nc(C(F)(F)F)nc2n1 [MMV011256]
Malaria Box
  Max Resp: -9%
[1]
  Curve Class: 4
[2]
  IC50: Inactive

## Cc1cc(C)cc(Nc2cc(C)nc3nc(C(F)(F)F)nn23)c1 [MMV011259]
Malaria Box
  Max Resp: 4%
[1]
  Curve Class: 4
[2]
  IC50: Inactive

## Cc1ccc(Nc2nc(N)c3ccccc3n2)cc1Cl [MMV011522]
Malaria Box
  Max Resp: -73%
[1]
  Curve Class: -2.2
[3]
  IC50: 14.8 µM

## COc1ccc(C(=O)Nc2nonc2-c2ccc(OC)c(OC)c2)cc1Cl [MMV011567]
Malaria Box
  Max Resp: 1%
[1]
  Curve Class: 4
[2]
  IC50: Inactive

## CCOC(=O)C1CCN(C(=O)CN2C(=O)c3ccccc3C2c2c[nH]c3ccccc23)CC1 (centres unmarked) [MMV011576]
Malaria Box
  Max Resp: -98%
[1]
  Curve Class: -1.1
[3]
  IC50: 3.72 µM

## O=C(O)C(=O)O.Oc1ccccc1CN1CCN(C(c2ccccc2)c2ccccc2)CC1 [MMV011795]
Malaria Box
  Max Resp: -53%
[1]
  Curve Class: -2.2
[3]
  IC50: 5.9 µM

## Oc1ccc2ccccc2c1CNc1nc2ccccc2[nH]1 [MMV011832]
Malaria Box
  Max Resp: -67%
[1]
  Curve Class: -2.2
[3]
  IC50: 29.6 µM

## Nc1ccc(-c2nc3cc(Oc4ccc(Oc5ccc6[nH]c(-c7ccc(N)cc7)nc6c5)cc4)ccc3[nH]2)cc1 [MMV011895]
Malaria Box
  Max Resp: -78%
[1]
  Curve Class: -2.2
[3]
  IC50: 18.7 µM

## COc1cccc(Nc2nc(NCCO)c3ccccc3n2)c1.Cl [MMV011944]
Malaria Box
  Max Resp: -68%
[1]
  Curve Class: -2.2
[3]
  IC50: 14.8 µM

## Cc1cc(NC(=O)c2ccc(-c3ccccc3)cc2)no1 [MMV018984]
Malaria Box
  Max Resp: 14%
[1]
  Curve Class: 4
[2]
  IC50: Inactive

## COCCNCC(O)Cn1c2ccc(Cl)cc2c2cc(Cl)ccc21 (centres unmarked) [MMV019017]
Malaria Box
  Max Resp: -94%
[1]
  Curve Class: -1.1
[3]
  IC50: 2.64 µM

## COc1cccc(-c2nn(C)c3sc(C(=O)NCCN4CCN(c5ccccc5F)CC4)cc23)c1 [MMV019064]
Malaria Box
  Max Resp: -42%
[1]
  Curve Class: -2.2
[2]
  IC50: Inactive

## COc1ccccc1CNC(=O)CCn1c(=O)[nH]c2ccsc2c1=O [MMV019066]
Malaria Box
  Max Resp: -11%
[1]
  Curve Class: 4
[2]
  IC50: Inactive

## CCN1CCN(c2cc(C)c3cc(NC(=O)c4ccc(OC)c(OC)c4)ccc3n2)CC1 [MMV019074]
Malaria Box
  Max Resp: -32%
[1]
  Curve Class: -2.2
[2]
  IC50: Inactive

## Cc1cccc(Nc2nc(N)c3ccccc3n2)c1.Cl [MMV019110]
Malaria Box
  Max Resp: -65%
[1]
  Curve Class: -2.2
[3]
  IC50: 18.7 µM

## CCN(Cc1ccccc1)C1CCN(Cc2cc(Br)ccc2O)CC1.O=C(O)C(=O)O [MMV019127]
Malaria Box
  Max Resp: -56%
[1]
  Curve Class: -1.2
[3]
  IC50: 0.935 µM

## COc1cccc(Nc2nc(N)c3ccccc3n2)c1.Cl [MMV019199]
Malaria Box
  Max Resp: -66%
[1]
  Curve Class: -2.2
[3]
  IC50: 23.5 µM

## CCOc1cccc(C(=O)Nc2ccc(-c3nc4ccccc4[nH]3)cc2)c1 [MMV019202]
Malaria Box
  Max Resp: -23%
[1]
  Curve Class: 4
[2]
  IC50: Inactive

## O=C(Nc1ccc(-c2nc3cc4ccccc4cc3[nH]2)cc1)c1cccc(Br)c1 [MMV019241]
Malaria Box
  Max Resp: -32%
[1]
  Curve Class: -2.4
[2]
  IC50: Inactive

## COc1ccc(-n2ccnc2SCC(=O)Nc2cc(C)ccc2C)c(OC)c1 [MMV019258]
Malaria Box
  Max Resp: -8%
[1]
  Curve Class: 4
[2]
  IC50: Inactive

## Cc1sc2ncnc(Sc3nc4ccccc4[nH]3)c2c1C [MMV019266]
Malaria Box
  Max Resp: -72%
[1]
  Curve Class: -2.2
[3]
  IC50: 11.8 µM

## Cn1c(=O)c2cc(C(=O)NCCCN3CCCCCC3)sc2c2ccccc21 [MMV019313]
Malaria Box
  Max Resp: -46%
[1]
  Curve Class: -2.2
[2]
  IC50: Inactive

## CCC1(C)CC(CCNCc2ccccc2O)(c2ccc(C)cc2)CCO1 (centres unmarked) [MMV019406]
Malaria Box screen
  reduction of gametocyte viability: > 75%
Malaria Box
  Max Resp: -82%
[1]
  Curve Class: -1.1
[3]
  IC50: 0.418 µM
P. falciparum 3D7 gametocytes, mean of at least 3 independent experiments, read-out: Gametocyte IC50
  IC50: < 1 µM

## Cl.c1ccc2c(NCCCCCCNc3c4c(nc5ccccc35)CCCC4)c3c(nc2c1)CCCC3 [MMV019555]
Malaria Box
  Max Resp: -104%
[1]
  Curve Class: -1.1
[3]
  IC50: 4.69 µM

## COc1ccc(N2CCN(C(CNC(=O)C3CCCCC3)c3ccc4c(c3)OCO4)CC2)cc1 (centres unmarked) [MMV019662]
Malaria Box
  Max Resp: -21%
[1]
  Curve Class: 4
[2]
  IC50: Inactive

## O=C(Nc1ccc(N2CCN(Cc3ccccc3)CC2)cc1)c1cccs1.O=C(O)C(F)(F)F [MMV019670]
Malaria Box
  Max Resp: 13%
[1]
  Curve Class: 4
[2]
  IC50: Inactive

## COc1ccc(C2NCCc3c2[nH]c2ccccc32)cc1CN1CCN(c2ccc(F)cc2)CC1.Cl (centres unmarked) [MMV019690]
Malaria Box
  Max Resp: -89%
[1]
  Curve Class: -1.1
[3]
  IC50: 6.62 µM

## O=C(Nc1ccc(N2CCCCC2)c(Cl)c1)c1ccc(Br)o1 [MMV019700]
Malaria Box
  Max Resp: 17%
[1]
  Curve Class: 4
[2]
  IC50: Inactive

## Cc1[nH]c(-c2ccc(F)cc2)cc1C(=O)NC1CCN(Cc2ccccc2)CC1 [MMV019738]
Malaria Box
  Max Resp: -61%
[1]
  Curve Class: -2.2
[3]
  IC50: 29.6 µM

## Cc1ccc(C)c(Cn2c(N3CCC(C(=O)NCc4cccs4)CC3)nc3ccccc32)c1 [MMV019741]
Malaria Box
  Max Resp: -65%
[1]
  Curve Class: -2.2
[3]
  IC50: 37.2 µM

## Cc1ccc(Cl)cc1N1CCN(CCCNC(=O)C2CCN(c3nc4ccccc4[nH]3)CC2)CC1 [MMV019746]
Malaria Box
  Max Resp: -74%
[1]
  Curve Class: -2.2
[3]
  IC50: 29.6 µM

## COc1ccc(C(=O)Nc2ccc3nc(N4CCCCC4)cc(C)c3c2)cc1OC [MMV019758]
Malaria Box
  Max Resp: -32%
[1]
  Curve Class: -3
[2]
  IC50: Inactive

## COc1cccc(C(=O)Nc2ccc(-c3nc4ccccc4[nH]3)cc2)c1 [MMV019762]
Malaria Box
  Max Resp: -1%
[1]
  Curve Class: 4
[2]
  IC50: Inactive

## Cc1cc(C)c2nc(N3CCC(C(=O)NCCCN4CCC(N5CCCCC5)CC4)CC3)sc2c1 [MMV019780]
Malaria Box
  Max Resp: -106%
[1]
  Curve Class: -1.1
[3]
  IC50: 4.18 µM

## Fc1ccc2[nH]c3c(NCCCN4CCOCC4)ncnc3c2c1 [MMV019871]
Malaria Box
  Max Resp: -42%
[1]
  Curve Class: -2.2
[2]
  IC50: Inactive

## O=C(NC1CCN(Cc2ccccc2)CC1)c1cc(C(=O)NC2CCN(Cc3ccccc3)CC2)cc(C(=O)NC2CCN(Cc3ccccc3)CC2)c1 [MMV019881]
Malaria Box
  Max Resp: -90%
[1]
  Curve Class: -1.1
[3]
  IC50: 2.96 µM

## Cl.Clc1cc(Br)ccc1-c1ccc(CNCC2CCNCC2)o1 [MMV019918]
Malaria Box
  Max Resp: -106%
[1]
  Curve Class: -1.1
[3]
  IC50: 1.87 µM
